This series concerns mouse. Nature of the series: Behavioral despair test in mouse (forced swim test), IP administration.
Where [1] appears, read: STUDY A, 150 mg/kg i.p. 30 min prior to testing, 150 mg/kg.
Where [2] appears, read: STUDY A, 150 mg/kg i.p. 30 min prior to testing, hemisulfate monohydrate, 150 mg/kg.

With `CN1c2ccccc2C(NCCCCCCC(=O)O)c2ccc(Cl)cc2S1(=O)=O` (stereo not shown) [tianeptine sodium, reference compound], under setting [1], the “Duration of Immobility % change from control” value is −50% and the “Duration of Immobility mean ± s.e.m.” value is 102.0 ± 13.0 s.
`CN(C)CCCN1c2ccccc2CCc2ccccc21` [Imipramine, reference compound]: the “Duration of Immobility mean ± s.e.m.” value (STUDY A, 32 mg/kg i.p. 30 min prior to testing) is 64.1 ± 16.1 s. Also, the “Duration of Immobility % change from control” value reads like this: (STUDY A, 32 mg/kg i.p. 30 min prior to testing, 32 mg/kg) −68%; (STUDY A, 32 mg/kg i.p. 30 min prior to testing, listed as imipramine hydrochloride, 32 mg/kg) −68%; (STUDY B, 32 mg/kg i.p. 30 min prior to testing, 32 mg/kg) −88%; (STUDY B, 32 mg/kg i.p. 30 min prior to testing, listed as imipramine hydrochloride, 32 mg/kg) −88%.
Turning to `CN1c2ccccc2C(NCCCCCCC(=O)O)c2ccc(Cl)cc2S1(=O)=O` (stereo not shown) [tianeptine hemisulfate monohydrate, 7-[(3-chloro-6,11-dihydro-6-methyldibenzo[c,f][1,2]thiazepin-11-yl)amino]heptanoic acid S,S-dioxide hemisulfate monohydrate], the “Duration of Immobility mean ± s.e.m.” value (STUDY A, 100 mg/kg i.p. 30 min prior to testing) stood at 83.1 ± 21.2 s; the “Duration of Immobility mean ± s.e.m.” value under setting [2] amounted to 115.5 ± 13.6 s; the “Duration of Immobility mean ± s.e.m.” value (STUDY A, 200 mg/kg i.p. 30 min prior to testing) was found to be 108.8 ± 19.8 s; the “Duration of Immobility mean ± s.e.m.” value (STUDY B, 30 mg/kg i.p. 30 min prior to testing) turned out to be 25.8 ± 8.7 s; the “Duration of Immobility mean ± s.e.m.” value (STUDY B, 60 mg/kg i.p. 30 min prior to testing) is 29.7 ± 9.7 s. Moreover, the “Duration of Immobility % change from control” value was −59% (STUDY A, 100 mg/kg i.p. 30 min prior to testing, hemisulfate monohydrate, 100 mg/kg); −43% under setting [2]; −46% (STUDY A, 200 mg/kg i.p. 30 min prior to testing, hemisulfate monohydrate, 200 mg/kg); −86% (STUDY B, 30 mg/kg i.p. 30 min prior to testing, hemisulfate monohydrate, 30 mg/kg); −83% (STUDY B, 60 mg/kg i.p. 30 min prior to testing, hemisulfate monohydrate, 60 mg/kg). The “abnormal behavior prior to the test” value (STUDY B, 30 mg/kg and 60 mg/kg i.p.) was “abnormal behavior (including Straub tail and circling) was observed in all ten mice”. Further, the “conclusion of STUDIES A and B” value (dose-range 30 mg/kg-200 mg/kg i.p.) is “antidepressant-like activity”.

These data come from US8198268B2, “Tianeptine sulfate salt forms and methods of making and using the same” (Janssen Biotech, Inc., priority 2008, dated 2012).
